Results reported in US20150297594A1, “Combination of a 6-oxo-1,6-dihydro-pyridazine derivative having anti-cancer activity with a MEK inhibitor” (MERCK PATENT GMBH, priority 2012, published 2015).
Where “and” joins values, the source holds several entries; their conditions need not be identical. Equal entries are not always repeated.

Legend:
[1] = tested on: human KP-4 pancreatic tumor cells; assay: human KP-4 pancreatic tumor xenograft model in nude mice; assay type: in vivo; settings: female BalBc nude mice, s.c. KP-4 tumors, 5 days on and 2 days off, end of treatment
Method: Method: Female BalBc nude mice (6-8 week old) where subcutaneously injected with human KP-4 pancreatic tumor cells and were divided into treatment groups (ten animals in one group) after the tumors were established.
Respective groups were administered orally with the 3-(1-{3-[5-(1-methyl-piperidin-4-ylmethoxy)-pyrimidin-2-yl]-benzyl}-6-oxo-1,6-dihydro-pyridazin -3-yl)-benzonitrile hydrochloride hydrate (100 mg/kg) or N-((S)-2,3-dihydroxy-propyl)-3-(2-fluoro-4-iodo-phenylamino)-isonicotinamide (50 mg/kg) for 5 days on and 2 days off in monotherapy or in combination. […] Statistical analysis has been done with one way ANOVA.

[2] = tested on: patient derived pancreatic tumor fragment; assay: 10 patient derived pancreatic tumor models in nude mice; assay type: in vivo, human
Experimental: Combination with MEK inhibitor N-((S)-2,3-dihydroxy-propyl)-3-(2-fluoro-4-iodo-phenylamino)-isonicotinamide in 10 patient derived pancreatic tumor models:
Method: Female NMRI nude mice (6-8 week old) where subcutaneously implanted with a patient derived pancreatic tumor fragment. Animals were divided into treatments groups (ten animals in one group) after the tumors were established. Respective groups were administered orally with the 3-(1-{3-[5-(1-methyl-piperidin-4-ylmethoxy)-pyrimidin-2-yl]-benzyl}-6-oxo -1,6-dihydro-pyridazin-3-yl)-benzonitrile hydrochloride hydrate (100 mg/kg) or N-((S)-2,3-dihydroxy-propyl)-3-(2-fluoro-4-iodo-phenylamino)-isonicotinamide (100 mg/kg, MTD) for 5 days on and 2 days off in monotherapy or in combination. At the end of treatment TC values were calculated and tumor regrowth was observed. Statistical analysis has been done with one way ANOVO. […] All treatments were well tolerated.

Row | SMILES | TC value ([1]; monotherapy 50 mg/kg orally) [%] | TC values ([2]; female NMRI nude mice, monotherapy 100 mg/kg (MTD) orally, 5 days on and 2 days off, end of treatment, all 10 models) [%] | models with anti-tumor activity ([2]; female NMRI nude mice, monotherapy 100 mg/kg orally, 5 days on and 2 days off, out of 10 models) | TC value ([1]; monotherapy 100 mg/kg orally) [%] | TC values ([2]; female NMRI nude mice; monotherapy 100 mg/kg orally, 5 days on and 2 days off; end of treatment; the models with anti-tumor activity; hydrochloride hydrate))
1 | O=C(NC[C@H](O)CO)c1ccncc1Nc1ccc(I)cc1F [N-((S)-2,3-dihydroxy-propyl)-3-(2-fluoro-4-iodo-phenylamino)-isonicotinamide] | 42 | < 55 | 10 |  | 
2 | CN1CCC(COc2cnc(-c3cccc(Cn4nc(-c5cccc(C#N)c5)ccc4=O)c3)nc2)CC1.Cl.O [3-(1-{3-[5-(1-methyl-piperidin-4-ylmethoxy)-pyrimidin-2-yl]-benzyl}-6-oxo-1,6-dihydro-pyridazin-3-yl)-benzonitrile hydrochloride hydrate] |  |  |  | 35 | 43% and 50%
